The record followed here is ChEMBL document CHEMBL5696442, “Discovery of type II inhibitors of TGFβ-activated kinase 1 (TAK1) and mitogen-activated protein kinase kinase kinase kinase 2 (MAP4K2)” (J Med Chem, 2015).

Activity calls are given as the source filed them. The calls are words filed in the database; no cut-off is given here.

Assay [1] has as its target Calcium/calmodulin-dependent protein kinase type IV (Homo sapiens) (UniProt Q16566). As to the kind of experiment: Inhibition of CAMK4 (unknown origin) at 1 uM by Ambit Kinomescan binding assay relative to control; values are per cent of control.
In assay [2] the target is Tyrosine-protein kinase ITK/TSK (Homo sapiens) (UniProt Q08881). As to the kind of experiment: Inhibition of ITK (unknown origin) at 1 uM by Ambit Kinomescan binding assay relative to control.
Tyrosine-protein kinase ITK/TSK (Homo sapiens), sequence (Q08881 whole entry): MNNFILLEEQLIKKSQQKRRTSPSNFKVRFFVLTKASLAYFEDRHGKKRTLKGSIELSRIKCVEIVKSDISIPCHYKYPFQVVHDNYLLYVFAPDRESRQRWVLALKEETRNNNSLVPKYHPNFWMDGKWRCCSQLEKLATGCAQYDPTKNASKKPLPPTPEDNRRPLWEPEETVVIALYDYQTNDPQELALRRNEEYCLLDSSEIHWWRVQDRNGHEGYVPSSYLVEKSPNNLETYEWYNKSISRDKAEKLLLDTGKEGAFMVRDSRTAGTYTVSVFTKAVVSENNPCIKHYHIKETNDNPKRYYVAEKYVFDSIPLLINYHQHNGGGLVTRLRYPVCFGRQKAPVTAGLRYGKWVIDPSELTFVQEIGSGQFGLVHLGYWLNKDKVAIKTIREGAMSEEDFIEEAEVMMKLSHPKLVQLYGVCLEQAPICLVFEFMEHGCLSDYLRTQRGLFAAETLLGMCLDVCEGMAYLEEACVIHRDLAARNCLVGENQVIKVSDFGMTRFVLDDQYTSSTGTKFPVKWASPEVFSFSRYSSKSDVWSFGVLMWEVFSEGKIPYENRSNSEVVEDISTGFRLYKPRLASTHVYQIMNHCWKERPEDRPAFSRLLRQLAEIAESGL
Assay [3] addresses Serine/threonine-protein kinase RIO2 (Homo sapiens) (UniProt Q9BVS4). As to the kind of experiment: Inhibition of RIOK2 (unknown origin) at 1 uM by Ambit Kinomescan binding assay relative to control.
For assay [4], the target named is Glycogen synthase kinase-3 alpha (Homo sapiens) (UniProt P49840). As to the kind of experiment: Inhibition of GSK3A (unknown origin) at 10 uM by Ambit Kinomescan binding assay.
Glycogen synthase kinase-3 alpha (Homo sapiens), sequence (P49840 2-483 limits assumed): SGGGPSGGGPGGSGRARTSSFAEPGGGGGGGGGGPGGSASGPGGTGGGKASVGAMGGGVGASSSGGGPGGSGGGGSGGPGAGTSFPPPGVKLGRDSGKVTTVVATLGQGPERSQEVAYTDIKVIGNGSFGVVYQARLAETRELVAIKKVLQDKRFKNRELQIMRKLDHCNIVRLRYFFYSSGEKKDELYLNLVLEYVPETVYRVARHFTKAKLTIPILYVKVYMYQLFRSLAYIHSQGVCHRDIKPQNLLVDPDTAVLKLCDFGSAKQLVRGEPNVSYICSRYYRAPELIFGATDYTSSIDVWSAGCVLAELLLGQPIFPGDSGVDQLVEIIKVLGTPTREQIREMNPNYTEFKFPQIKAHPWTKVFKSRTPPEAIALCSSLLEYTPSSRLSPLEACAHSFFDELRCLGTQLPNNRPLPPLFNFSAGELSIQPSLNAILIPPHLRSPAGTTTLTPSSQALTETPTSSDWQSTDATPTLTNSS
Assay [5] has as its target Calcium/calmodulin-dependent protein kinase type II subunit gamma (Homo sapiens) (UniProt Q13555). As to the kind of experiment: Inhibition of CaMK2g K1 labeling site in human Huh-7 cells at 10 uM by KiNativ Profiling analysis relative to control. The class given is cell-based.
The target in assay [6] is Non-receptor tyrosine-protein kinase TYK2 (Homo sapiens) (UniProt P29597). As to the kind of experiment: Inhibition of TYK2 domain2 ACT labeling site in human A-375 cells at 0.05 uM by KiNativ Profiling analysis relative to control. The class given is cell-based.
Non-receptor tyrosine-protein kinase TYK2 (Homo sapiens), sequence (P29597 whole entry, the tested form may be a part): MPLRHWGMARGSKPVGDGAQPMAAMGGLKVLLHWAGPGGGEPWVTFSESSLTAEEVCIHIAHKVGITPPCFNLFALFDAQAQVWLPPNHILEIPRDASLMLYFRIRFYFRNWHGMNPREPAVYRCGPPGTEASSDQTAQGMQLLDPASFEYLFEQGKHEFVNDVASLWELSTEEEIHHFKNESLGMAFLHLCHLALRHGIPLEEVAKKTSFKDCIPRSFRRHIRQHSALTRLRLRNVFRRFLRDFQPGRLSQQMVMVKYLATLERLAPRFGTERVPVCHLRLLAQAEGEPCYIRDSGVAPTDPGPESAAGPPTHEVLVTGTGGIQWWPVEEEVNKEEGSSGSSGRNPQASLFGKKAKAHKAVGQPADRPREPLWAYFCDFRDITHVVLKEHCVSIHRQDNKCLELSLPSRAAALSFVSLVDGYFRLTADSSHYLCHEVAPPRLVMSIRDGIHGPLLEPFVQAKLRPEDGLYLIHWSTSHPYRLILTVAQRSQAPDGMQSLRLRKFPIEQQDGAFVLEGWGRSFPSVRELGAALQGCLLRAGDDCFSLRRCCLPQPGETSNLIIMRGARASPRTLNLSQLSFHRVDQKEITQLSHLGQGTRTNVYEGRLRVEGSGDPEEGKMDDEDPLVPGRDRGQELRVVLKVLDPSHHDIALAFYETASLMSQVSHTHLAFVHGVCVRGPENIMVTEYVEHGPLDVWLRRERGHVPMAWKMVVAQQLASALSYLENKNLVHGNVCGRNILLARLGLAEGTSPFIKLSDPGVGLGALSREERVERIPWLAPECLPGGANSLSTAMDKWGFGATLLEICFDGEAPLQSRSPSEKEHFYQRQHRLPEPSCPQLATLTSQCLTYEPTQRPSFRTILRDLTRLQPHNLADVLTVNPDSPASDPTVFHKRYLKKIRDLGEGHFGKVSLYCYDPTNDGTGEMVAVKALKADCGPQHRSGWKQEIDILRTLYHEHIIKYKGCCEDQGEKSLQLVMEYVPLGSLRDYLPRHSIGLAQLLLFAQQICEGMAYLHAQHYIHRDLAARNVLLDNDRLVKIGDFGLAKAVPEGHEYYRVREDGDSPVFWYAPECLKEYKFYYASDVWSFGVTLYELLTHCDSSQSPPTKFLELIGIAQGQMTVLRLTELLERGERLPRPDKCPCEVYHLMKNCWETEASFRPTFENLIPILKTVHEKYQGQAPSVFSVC
Assay [7] addresses Muscle, skeletal receptor tyrosine-protein kinase (Homo sapiens) (UniProt O15146). As to the kind of experiment: Inhibition of MUSK (unknown origin) at 10 uM by Ambit Kinomescan binding assay relative to control; values are per cent of control.
Assay [8] concerns the target T1, Serine/threonine-protein kinase TBK1 (Homo sapiens) (UniProt Q9UHD2).
T1 sequence (whole entry): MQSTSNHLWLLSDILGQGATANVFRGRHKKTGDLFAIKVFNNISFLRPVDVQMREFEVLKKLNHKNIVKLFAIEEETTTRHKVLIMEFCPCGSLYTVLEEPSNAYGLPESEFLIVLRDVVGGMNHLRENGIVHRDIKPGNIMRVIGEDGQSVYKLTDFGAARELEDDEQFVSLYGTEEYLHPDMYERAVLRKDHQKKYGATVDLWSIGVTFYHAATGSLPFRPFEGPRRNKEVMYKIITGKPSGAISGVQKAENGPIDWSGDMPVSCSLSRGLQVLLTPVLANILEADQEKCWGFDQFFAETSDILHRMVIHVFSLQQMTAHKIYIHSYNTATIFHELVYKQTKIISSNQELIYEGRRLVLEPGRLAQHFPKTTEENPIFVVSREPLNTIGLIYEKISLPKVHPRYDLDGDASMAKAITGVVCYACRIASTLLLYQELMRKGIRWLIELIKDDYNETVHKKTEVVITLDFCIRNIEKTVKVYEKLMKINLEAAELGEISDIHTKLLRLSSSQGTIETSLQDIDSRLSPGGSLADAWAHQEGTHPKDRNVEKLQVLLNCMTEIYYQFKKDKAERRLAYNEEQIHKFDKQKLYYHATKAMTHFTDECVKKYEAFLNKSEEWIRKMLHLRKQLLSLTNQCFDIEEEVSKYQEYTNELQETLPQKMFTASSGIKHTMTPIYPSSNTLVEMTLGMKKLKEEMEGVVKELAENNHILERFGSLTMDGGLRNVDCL
As to the kind of experiment: Inhibition of TBK1 Lys1 labeling site in human Huh-7 cells at 1 uM by KiNativ Profiling analysis relative to control. The class given is cell-based.

The target in assay [9] is DNA-PK/Ku70/Ku85 (Homo sapiens) (UniProt P78527+P12956+P13010). As to the kind of experiment: Inhibition of DNAPK ATP labeling site harbouring EHPFLVKGGEDLR in human Huh-7 cell lysate at 1 uM by KiNativ Profiling analysis relative to control. In kind it is subcellular.
The target of assay [10] is T2, Serine/threonine-protein kinase TAO3 (Homo sapiens) (UniProt Q9H2K8).
T2 sequence (whole entry): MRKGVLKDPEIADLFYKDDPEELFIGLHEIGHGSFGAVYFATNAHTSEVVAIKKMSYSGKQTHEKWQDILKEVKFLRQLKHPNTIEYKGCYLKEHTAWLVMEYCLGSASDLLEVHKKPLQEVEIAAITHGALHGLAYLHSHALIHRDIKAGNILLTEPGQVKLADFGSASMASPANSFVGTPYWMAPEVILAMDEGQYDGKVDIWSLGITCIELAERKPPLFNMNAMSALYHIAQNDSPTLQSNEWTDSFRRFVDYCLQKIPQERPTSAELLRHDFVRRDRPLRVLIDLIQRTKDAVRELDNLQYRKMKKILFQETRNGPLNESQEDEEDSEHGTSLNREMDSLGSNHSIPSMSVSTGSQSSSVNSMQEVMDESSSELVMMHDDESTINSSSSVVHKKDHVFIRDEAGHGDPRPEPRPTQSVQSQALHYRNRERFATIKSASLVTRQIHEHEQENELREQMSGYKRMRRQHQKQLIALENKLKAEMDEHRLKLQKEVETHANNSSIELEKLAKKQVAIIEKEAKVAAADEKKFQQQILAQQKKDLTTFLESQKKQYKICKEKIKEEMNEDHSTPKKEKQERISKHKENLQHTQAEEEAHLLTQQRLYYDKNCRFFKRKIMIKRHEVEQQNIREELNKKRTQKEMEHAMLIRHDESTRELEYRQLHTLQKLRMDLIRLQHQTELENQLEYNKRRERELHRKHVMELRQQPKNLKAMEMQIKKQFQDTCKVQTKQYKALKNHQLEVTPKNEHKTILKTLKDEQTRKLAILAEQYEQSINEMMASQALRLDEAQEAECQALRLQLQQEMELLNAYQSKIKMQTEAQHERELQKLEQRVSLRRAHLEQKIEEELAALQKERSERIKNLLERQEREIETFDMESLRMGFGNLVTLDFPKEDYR
As to the kind of experiment: Inhibition of TAO3 Lys2 labeling site in human Huh-7 cells at 1 uM by KiNativ Profiling analysis relative to control. The class given is cell-based.

Muscle, skeletal receptor tyrosine-protein kinase (Homo sapiens), sequence (O15146 whole entry): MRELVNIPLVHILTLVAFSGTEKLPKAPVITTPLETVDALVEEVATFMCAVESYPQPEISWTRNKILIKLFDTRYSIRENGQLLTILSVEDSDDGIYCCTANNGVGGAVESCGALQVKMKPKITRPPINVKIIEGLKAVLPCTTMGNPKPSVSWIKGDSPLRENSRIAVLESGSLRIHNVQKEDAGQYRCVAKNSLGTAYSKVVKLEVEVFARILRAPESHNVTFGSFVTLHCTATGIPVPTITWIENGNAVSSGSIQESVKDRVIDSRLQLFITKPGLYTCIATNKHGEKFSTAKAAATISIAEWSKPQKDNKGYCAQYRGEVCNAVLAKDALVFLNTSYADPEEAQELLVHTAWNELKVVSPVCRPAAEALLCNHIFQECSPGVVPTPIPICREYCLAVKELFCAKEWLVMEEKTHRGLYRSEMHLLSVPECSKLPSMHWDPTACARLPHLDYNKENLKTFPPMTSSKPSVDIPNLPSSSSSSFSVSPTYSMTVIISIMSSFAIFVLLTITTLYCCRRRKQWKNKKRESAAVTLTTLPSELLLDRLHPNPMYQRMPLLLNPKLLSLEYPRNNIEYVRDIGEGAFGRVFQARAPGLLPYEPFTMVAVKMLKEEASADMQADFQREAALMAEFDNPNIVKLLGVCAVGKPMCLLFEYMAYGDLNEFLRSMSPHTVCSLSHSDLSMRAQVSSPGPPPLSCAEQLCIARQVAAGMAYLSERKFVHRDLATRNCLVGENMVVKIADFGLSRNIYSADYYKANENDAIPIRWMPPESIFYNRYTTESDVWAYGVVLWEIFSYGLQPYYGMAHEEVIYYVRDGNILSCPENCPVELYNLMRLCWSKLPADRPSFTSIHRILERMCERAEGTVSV
Calcium/calmodulin-dependent protein kinase type IV (Homo sapiens), sequence (Q16566 whole entry): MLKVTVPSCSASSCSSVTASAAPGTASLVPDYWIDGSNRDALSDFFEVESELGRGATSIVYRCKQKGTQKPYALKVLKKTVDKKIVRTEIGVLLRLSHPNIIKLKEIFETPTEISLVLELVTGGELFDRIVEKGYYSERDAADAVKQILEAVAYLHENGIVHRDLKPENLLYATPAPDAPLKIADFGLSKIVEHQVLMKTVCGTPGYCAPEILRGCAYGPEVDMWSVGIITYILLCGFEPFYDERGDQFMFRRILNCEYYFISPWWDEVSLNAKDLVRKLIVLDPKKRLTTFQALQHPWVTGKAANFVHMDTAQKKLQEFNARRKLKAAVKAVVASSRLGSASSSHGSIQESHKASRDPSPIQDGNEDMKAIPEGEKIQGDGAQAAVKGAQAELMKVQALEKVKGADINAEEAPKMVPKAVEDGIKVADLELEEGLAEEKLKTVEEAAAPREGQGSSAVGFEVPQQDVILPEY
Calcium/calmodulin-dependent protein kinase type II subunit gamma (Homo sapiens), sequence (Q13555 whole entry, the tested form may be a part): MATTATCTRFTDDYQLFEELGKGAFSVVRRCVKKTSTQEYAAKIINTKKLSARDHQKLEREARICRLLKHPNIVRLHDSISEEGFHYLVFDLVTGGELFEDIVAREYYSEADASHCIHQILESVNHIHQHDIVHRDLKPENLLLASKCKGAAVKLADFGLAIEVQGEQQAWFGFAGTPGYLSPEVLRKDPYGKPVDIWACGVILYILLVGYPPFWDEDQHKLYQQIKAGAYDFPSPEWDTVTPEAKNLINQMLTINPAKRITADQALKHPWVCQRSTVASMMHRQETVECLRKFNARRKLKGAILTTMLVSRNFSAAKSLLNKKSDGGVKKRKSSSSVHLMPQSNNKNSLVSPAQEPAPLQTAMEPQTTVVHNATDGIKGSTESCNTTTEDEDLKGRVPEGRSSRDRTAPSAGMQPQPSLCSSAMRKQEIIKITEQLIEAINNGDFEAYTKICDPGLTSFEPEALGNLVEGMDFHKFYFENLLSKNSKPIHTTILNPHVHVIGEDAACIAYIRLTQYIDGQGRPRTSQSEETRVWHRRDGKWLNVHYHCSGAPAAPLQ
Serine/threonine-protein kinase RIO2 (Homo sapiens), sequence (Q9BVS4 whole entry, looked up): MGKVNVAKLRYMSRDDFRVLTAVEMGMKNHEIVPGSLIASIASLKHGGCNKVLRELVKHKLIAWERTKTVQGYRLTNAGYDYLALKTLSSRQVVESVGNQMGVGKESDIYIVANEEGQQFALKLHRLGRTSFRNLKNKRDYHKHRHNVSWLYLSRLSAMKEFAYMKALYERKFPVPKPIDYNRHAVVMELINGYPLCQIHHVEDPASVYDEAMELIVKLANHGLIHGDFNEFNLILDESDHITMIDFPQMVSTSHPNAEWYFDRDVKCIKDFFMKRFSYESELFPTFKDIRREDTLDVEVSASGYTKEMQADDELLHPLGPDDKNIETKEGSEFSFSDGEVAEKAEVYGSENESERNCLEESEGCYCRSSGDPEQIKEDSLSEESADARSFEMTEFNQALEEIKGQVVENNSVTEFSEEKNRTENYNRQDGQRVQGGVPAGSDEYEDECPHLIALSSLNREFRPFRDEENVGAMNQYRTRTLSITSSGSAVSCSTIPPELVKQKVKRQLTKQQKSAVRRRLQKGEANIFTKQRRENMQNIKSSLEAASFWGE

As for `CCN1CCN(Cc2ccc(NC(=O)c3ccc(C)c(/C=C/c4cnc5[nH]ccc5c4OC)c3)cc2C(F)(F)F)CC1`, in [1], the residual activity was determined as 100%. Moreover, the inhibition in assay [2] came out at 81%; in assay [3] it was 61%.
Regarding `CCN1CCN(Cc2ccc(NC(=O)c3ccc(C)c(Oc4ccnc5[nH]ccc45)c3)cc2C(F)(F)F)CC1`, the inhibition result in assay [4] is “inactive”. Also, the values for the inhibition in assay [5] and in assay [6] were 0% and -4.4%, respectively. In addition, in assay [7], the % of control turned out to be 0.2%.
For the compound `CNc1cc(Oc2cc(C(=O)Nc3cc(N4CCN(C)CC4)cc(C(F)(F)F)c3)ccc2C)ncn1`, the inhibition was 30.9% in assay [8], -6.7% in assay [9] and 0.4% in [10].
